From patent publication US8563567B2, “Substituted heterocyclic compounds” (ArQule, Inc., priority 2009, dated 2013) come the findings set out here.

Where a name gives a salt, the structure may show the parent alone.

Usually melting point stands for the temperature of the solid-liquid transition. Usually inhibition stands for the relative decrease from the control value, in per cent.

In one series the test system is DLD-1. Description: MTS assay, DLD-1. It is filed as cell-based. The following applies: Homo sapiens, DLD-1, 72 h. The protocol: (§1) Cells were maintained at 37° C., 5% CO2 in RPMI media supplemented with 1% fetal bovine serum, penicillin/streptomycin and fungizone (Invitrogen). Cells were seeded into 96-well tissue culture plates at 3000 per well and cultured at 37° C. for 18 h. Test compounds were dissolved and diluted to 300× in DMSO then diluted 1:40 in DMEM. Cells were incubated with test compounds for 72 hours followed by incubation with tetrazolium compound (3-(4,5-dimethylthiazol-2-yl)-5-(3-carboxymethoxyphenyl)-2-(4-sulfophenyl)-2H-tetrazolium, inner salt; MTS) and the electron coupling reagent, phenazine methosulfate (PMS) for 4 hours. […] The ability of compounds to inhibit cell growth in this assay is correlated with the reduction of dehydrogenase enzyme activity found in metabolically active cells. The measurement of the absorbance of the formazan was assessed using an ENVISION™ (Perkin Elmer) microplate reader at 492 nm. The calculated IC50 value is the concentration of the test compound that causes a 50% decrease in the absorbance.
For orientation: Tetrazolium dyes change colour on reduction, which living cells bring about.

Another series deals with MDA-MB-231. Description: MTS assay, MDA-MB-231. It is filed as cell-based. The conditions noted are these: Homo sapiens, MDA-MB-231, 72 h. The protocol: as §1
The target of another series is Abl (T315I) (Homo sapiens, UniProt P00519, T315I). Description: Abl kinase activity assay (fluorescent ELISA, AblTide substrate). It is filed as biochemical. The protocol: The disclosed compounds were assayed for their ability to inhibit the activity of ABL kinase. Nunc Maxisorb plates are coated with streptavidin by overnight incubation with 100 μL per well of 1 μg/mL streptavidin in DPBS. Prior to the start of the experiment, the plates are washed with TBST (3×200 μL) and blocked for at least 3 hours by adding 150 μL of 5% BSA/TBST. The plates are washed with TBST (3×200 μL/well) and left dry immediately before the capture step.
The test articles and controls (Gleevec) are prepared using the following assay buffer @ 10× desired final concentration (50 mM Tris pH 7.0, 0.02 mg/ml BSA, 10 mM MgCl2, 0.1 mM Na3VO4, 1 mM EGTA, 0.01% NP-40, 1 mM DTT in 10% glycerol/water). In a reaction plate are added rapidly 5 μL test article (or control) and 30 μL ABL or ABL T315I (0.089 nM final concentration, in the above buffer). The plate is incubated for 20 minutes. To the reaction plate is added ATP (100 μM final concentration) and AblTide (128 nM final concentration) in a volume of 15 μL. The plate is incubated at room temperature for one hour.
From the reaction plate, 40 μL is transferred to the streptavidin coated plate. The capture plate is incubated at room temperature for 30 minutes then washed 3× with TBST. To the capture plate is added 100 μL/well of Cell Signaling anti-phospho tyrosine at a dilution of 1:3000 in 2% BSA/TBST. The plate is incubated for two hours at room temperature then washed 3× with TBST. To the capture plate is added 100 μL/well of Alkaline Phosphatase Tagged Goat anti Mouse Antibody at a dilution of 1:4000 in 2% BSA/TBST. The plate is incubated for one hour at room temperature then washed 3× with TBST.
The fluorescent readout was initiated by the addition of 100 μL/well of Attophos reagent (6 mg/10 mL). The reading was done on the Perkin Elmer Envision system.
Background: An ELISA detects its analyte on a solid surface through an enzyme-linked reagent.

Another series deals with T1, FGFR2 (N549H) (Homo sapiens, UniProt P21802, N549H).
T1 construct: purchased Millipore 14-742
Description: FGFR2 kinase activity assay (fluorescent ELISA). It is filed as biochemical. The protocol: The enzymatic assays described herein are conducted according to the following procedures from commercially available reagents. In one, non limiting, example, a fluorescent ELISA assay is used to identify and characterize inhibitors of FGFR2 kinase as described herein. This heterogeneous assay utilizes a biotinylated peptide with a tyrosine motif as a substrate and an anti-phospho-tyrosine antibody to measure phosphorylation of the substrate. The reaction is initiated by adding the test compound, 37 μM Pyk2 substrate (Midwest Biotech, Cat. # MBT2383), 12.5 μM ATP (Roche, Cat. #11 140 965 001) and 0.5 μM FGFR2 enzyme (Millipore, Cat. #14-742) sequentially to a non-binding polypropylene V-well plate. All reagents are in an assay buffer consisting of: 50 mM Tris-HCL, 0.02 mg/ml BSA, 10 mM MgCl2, 0.1 mM Na3VO4, 1 mM EGTA, 75 μM ATP, 0.01% NP-40, 2 mM DTT and 10% glycerol. The reaction is incubated for 60 minutes. As the reaction proceeds, FGFR2 phosphorylates tyrosines in the peptide. The reaction mixture is then moved to a blocked streptavidin-coated Nunc Maxisorb plate (coated with 100 ng streptavidin from Pierce (Cat. #15-124) per well), allowing for the capture of the biotinylated peptide. Peptides are captured for 30 minutes at room temperature, the phosphorylation of peptides continues during this phase. The reaction is stopped by washing the streptavidin-coated plate 6 times with TBST. Phosphorylated peptide is detected by adding anti-phospho-tyrosine antibody (Cell Signaling, Cat. #9411, diluted 1:3000) to the streptavidin-coated plate. Unbound anti-phospho-tyrosine antibody is removed by washing the streptavidin-coated plate 6 times with TBST. Secondary detection is performed using alkaline phosphatase tagged goat anti-mouse antibody (Pierce, Cat. #31320, diluted 1:4000) for one hour. Unbound secondary antibody is removed by washing the streptavidin-coated plate 6 times with TBST. The fluorescent readout is initiated by adding to the streptavidin-coated plate Promega Attophos substrate (Promega, Cat. # S1000, dilution=6 mg/10 ml), which, when dephosphorylated by alkaline phosphatase, emits a fluorescent signal of 595 nm in wavelength when excited by a signal of 400 nm in wavelength. The reading of the 595 nm signal is done on the Perkin Elmer Envision system. Compounds which prevent FGFR2 from phosphorylating the peptide result in a lower fluorescent signal. The 595 nm fluorescent signal is directly proportional to the activity of FGFR2. Thus, the inhibition of FGFR2 by compounds is monitored by the decrease in the 595 nm fluorescent signal.

T1 sequence (P21802 22-821 N549H): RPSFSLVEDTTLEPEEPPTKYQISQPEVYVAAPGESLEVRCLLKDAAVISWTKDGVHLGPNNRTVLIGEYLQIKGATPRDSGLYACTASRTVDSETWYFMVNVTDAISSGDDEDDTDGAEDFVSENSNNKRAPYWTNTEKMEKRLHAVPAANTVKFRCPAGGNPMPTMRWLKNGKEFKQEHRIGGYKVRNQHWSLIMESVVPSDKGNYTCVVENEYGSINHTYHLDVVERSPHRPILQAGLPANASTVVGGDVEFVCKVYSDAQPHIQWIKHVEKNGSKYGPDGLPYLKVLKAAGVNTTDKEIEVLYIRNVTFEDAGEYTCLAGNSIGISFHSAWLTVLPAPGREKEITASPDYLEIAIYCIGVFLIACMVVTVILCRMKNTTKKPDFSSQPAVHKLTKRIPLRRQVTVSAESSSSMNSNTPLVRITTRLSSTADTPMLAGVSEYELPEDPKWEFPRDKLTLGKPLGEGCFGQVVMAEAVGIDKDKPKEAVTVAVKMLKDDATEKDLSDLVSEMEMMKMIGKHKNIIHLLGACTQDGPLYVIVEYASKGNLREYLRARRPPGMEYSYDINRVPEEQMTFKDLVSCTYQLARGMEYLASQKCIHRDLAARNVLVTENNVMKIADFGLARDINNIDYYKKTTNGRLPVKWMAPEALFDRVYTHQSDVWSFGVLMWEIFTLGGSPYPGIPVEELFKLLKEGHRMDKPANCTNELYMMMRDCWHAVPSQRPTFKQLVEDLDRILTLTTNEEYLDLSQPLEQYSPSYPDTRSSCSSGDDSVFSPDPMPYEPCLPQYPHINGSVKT

In turn, `CC(C)(C)C(=O)N1CCC(CNc2nccc(-c3cn4c5c(cccc35)CCC4)n2)CC1` (as salt: trifluoroacetate) [Compound 36, 1-(4-((4-(5,6-dihydro-4H-pyrrolo[3,2,1-ij]quinolin-1-yl)pyrimidin-2-ylamino)methyl)piperidin-1-yl)-2,2-dimethylpropan-1-one] came in with a melting point of 170 to 172 °C.
On the same count and under the same terms, with `CCOC(=O)CNC(=O)N1CCC(CNc2nccc(-c3cn4c5c(cccc35)CCC4)n2)CC1` (as salt: trifluoroacetate) [Compound 34, ethyl 2-(4-((4-(5,6-dihydro-4H-pyrrolo[3,2,1-ij]quinolin-1-yl)pyrimidin-2-ylamino)methyl)piperidine-1-carboxamido)acetate] the figure was 170 to 172 °C.
`O=c1[nH][nH]c(-c2ccc(Cl)cc2)c1-c1cn2c3c(cccc13)CCC2` [Compound 11, 5-(4-chlorophenyl)-4-(5,6-dihydro-4H-pyrrolo[3,2,1-ij]quinolin-1-yl)-1,2-dihydro-3H-pyrazol-3-one]: the inhibition at 10 µM worked out at 97% in the series with DLD-1, 97% in the series on MDA-MB-231 and 13% at Abl (T315I).
With `CC(C)(C)Cc1[nH][nH]c(=O)c1-c1cn2c3c(cccc13)CCC2` [Compound 14, 4-(5,6-dihydro-4H-pyrrolo[3,2,1-ij]quinolin-1-yl)-5-(2,2-dimethylpropyl)-1,2-dihydro-3H-pyrazol-3-one], the inhibition at 10 µM with DLD-1 is 57%; in the series on MDA-MB-231, 72%; against Abl (T315I), 8%.
The like results for `O=c1[nH][nH]c(-c2ccccc2)c1-c1cn2c3c(cccc13)CCC2` [Compound 10, 4-(5,6-dihydro-4H-pyrrolo[3,2,1-ij]quinolin-1-yl)-5-phenyl-1,2-dihydro-3H-pyrazol-3-one] were, in that order, 46%, 37% and 25%.
Consider `O=S(=O)(c1ccc(Cl)cc1)N1CCC(CNc2nccc(-c3cn4c5c(cccc35)CCC4)n2)CC1` (as salt: trifluoroacetate) [Compound 35, N-((1-(4-chlorophenylsulfonyl)piperidin-4-yl)methyl)-4-(5,6-dihydro-4H-pyrrolo[3,2,1-ij]quinolin-1-yl)pyrimidin-2-amine], for which the melting point is 140 to 142 °C.
The same measure, in the same setting: with `Cl.c1cc2c3c(c1)c(-c1ccnc(NCC4CCNCC4)n1)cn3CCC2` the figure was 192 to 194 °C.
Regarding `O=c1[nH][nH]c(-c2ccc3ccccc3c2)c1-c1cn2c3c(cccc13)CCC2` [Compound 13, 4-(5,6-dihydro-4H-pyrrolo[3,2,1-ij]quinolin-1-yl)-5-(2-naphthyl)-1,2-dihydro-3H-pyrazol-3-one], the inhibition at 10 µM came out at 61% in the series with DLD-1, 46% in the series with MDA-MB-231 and 37% against Abl (T315I). Moreover, at 30 µM the inhibition on FGFR2 (N549H) was 94%.
Take `Cl.c1cc2c3c(c1)c(-c1nnnn1C1CCNCC1)cn3CCC2`: the melting point lay in the range of 198 to 200 °C.
As for `O=c1[nH][nH]c(-c2cc3ccccc3s2)c1-c1cn2c3c(cccc13)CCC2` [Compound 12, 5-(1-benzothien-2-yl)-4-(5,6-dihydro-4H-pyrrolo[3,2,1-ij]quinolin-1-yl)-1,2-dihydro-3H-pyrazol-3-one], the inhibition at 10 µM was 87% in the series on DLD-1, 90% in the series with MDA-MB-231 and 53% on Abl (T315I).
